In US20250171437A1 (Agios Pharmaceuticals,Inc., priority 2022, published 2025):

The compounds below were run against T1, human PAH with the R408W mutation (A375 R408W cells) (Homo sapiens, UniProt P00439, R408W) (assay: Cell Based Phenylalanine Flux Assay). Details: A375 R408W cells; 24 hrs with compound, then 20 μM sepiapterin and 800 μM 13C9,15N-Phenylalanine for 4 hours; 13C-Tyrosine by LC-MS; average where tested multiple times.
T1 construct: expressed in transfected cells
T1 sequence (P00439 1-452 R408W): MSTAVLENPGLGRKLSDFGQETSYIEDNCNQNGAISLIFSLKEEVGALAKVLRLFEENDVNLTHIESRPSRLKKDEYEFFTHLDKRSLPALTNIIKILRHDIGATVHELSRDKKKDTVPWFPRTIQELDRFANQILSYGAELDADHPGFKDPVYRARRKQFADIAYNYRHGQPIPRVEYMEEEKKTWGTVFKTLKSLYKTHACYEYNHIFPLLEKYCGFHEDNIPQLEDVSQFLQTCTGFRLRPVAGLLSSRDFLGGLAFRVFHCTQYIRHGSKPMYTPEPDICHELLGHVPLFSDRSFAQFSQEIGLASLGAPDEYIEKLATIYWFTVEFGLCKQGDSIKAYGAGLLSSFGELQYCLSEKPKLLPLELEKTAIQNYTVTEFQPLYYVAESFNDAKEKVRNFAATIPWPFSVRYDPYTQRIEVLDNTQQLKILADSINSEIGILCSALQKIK
Outline: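 Phenylalanine-to-tyrosine flux is measured in A375 cells carrying stable human R408W PAH. After 24 h compound exposure, 13C9,15N-Phe (800 μM) with sepiapterin (20 μM) is supplied for 4 h and media 13C-Tyr is read by LC-MS; AC50s are binned.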

First: CC(C)n1ncnc1C(=O)N1CCc2[nH]cnc2[C@@H]1c1nc2ccccc2o1 [Example 706, (R)-(4-(benzo[d]oxazol-2-yl)-6,7-dihydro-1H-imidazo[4,5-c]pyridin-5(4H)-yl)(1-isopropyl-1H-1,2,4-triazol-5-yl)methanone]
Second: CC(C)(O)c1nc(C(F)F)c(C(=O)N2CCc3[nH]cnc3[C@@H]2c2nc3c(F)ccc(F)c3o2)o1 [Example 346, (R)-(4-(4,7-difluorobenzo[d]oxazol-2-yl)-6,7-dihydro-1H-imidazo[4,5-c]pyridin-5(4H)-yl)(4-(difluoromethyl)-2-(2-hydroxypropan-2-yl)oxazol-5-yl)methanone]
The AC50 of the first is lower: 0.5 to 1 µM for the first, 1 to 5 µM for the second.

First: (R)-(4-(5,7-difluorobenzo[d]oxazol-2-yl)-6,7-dihydro-1H-imidazo[4,5-c]pyridin-5(4H)-yl)(5-(1-methyl-1H-pyrazol-4-yl)-1,3,4-oxadiazol-2-yl)methanone [Example 610]
Second: COc1cccc2nc([C@@H]3c4nc[nH]c4CCN3C(=O)c3cc(C)nn3C)oc12 [Example 821, (S)-(1,3-dimethyl-1H-pyrazol-5-yl)(4-(7-methoxybenzo[d]oxazol-2-yl)-6,7-dihydro-1H-imidazo[4,5-c]pyridin-5(4H)-yl)methanone]
The AC50 of the first is higher: 1 to 5 µM for the first, at most 0.5 µM for the second.

`Cc1cccc2nc([C@@H]3c4nc[nH]c4CCN3C(=O)c3ccnn3C(F)F)oc12` [Example 919, (S)-(1-(difluoromethyl)-1H-pyrazol-5-yl)(4-(7-methylbenzo[d]oxazol-2-yl)-6,7-dihydro-1H-imidazo[4,5-c]pyridin-5(4H)-yl)methanone] and `O=C(c1c(C(F)(F)F)nn2ccccc12)N1CCc2[nH]cnc2[C@H]1c1nc2cc(F)ccc2o1` [Example 915, (S)-(4-(5-fluorobenzo[d]oxazol-2-yl)-6,7-dihydro-1H-imidazo[4,5-c]pyridin-5(4H)-yl)(2-(trifluoromethyl)pyrazolo[1,5-a]pyridin-3-yl)methanone] cannot be ordered by AC50: at most 0.5 µM for the first, at most 0.5 µM for the second.

First: Cc1ccc2oc([C@@H]3c4nc[nH]c4CCN3C(=O)c3ncc(Cl)s3)nc2c1 [Example 1, (S)-(5-chlorothiazol-2-yl)(4-(5-methylbenzo[d]oxazol-2-yl)-6,7-dihydro-1H-imidazo[4,5-c]pyridin-5(4H)-yl)methanone]
Second: CC(C)(O)c1nc(C(F)(F)F)c(C(=O)N2CCc3[nH]cnc3[C@@H]2c2nc3c(F)cccc3o2)o1 [Example 258, (R)-(4-(4-fluorobenzo[d]oxazol-2-yl)-6,7-dihydro-1H-imidazo[4,5-c]pyridin-5(4H)-yl)(2-(2-hydroxypropan-2-yl)-4-(trifluoromethyl)oxazol-5-yl)methanone]
The AC50 of the first is lower: 0.5 to 1 µM for the first, 1 to 5 µM for the second.

`Cn1cc(-c2nnc(C(=O)N3CCc4[nH]cnc4[C@@H]3c3nc4ccc(F)c(F)c4o3)o2)cn1` [Example 516, (R)-(4-(6,7-difluorobenzo[d]oxazol-2-yl)-6,7-dihydro-1H-imidazo[4,5-c]pyridin-5(4H)-yl)(5-(1-methyl-1H-pyrazol-4-yl)-1,3,4-oxadiazol-2-yl)methanone] and `COc1cccc2oc([C@@H]3c4nc[nH]c4CCN3C(=O)c3ncnn3C)nc12` [Example 903, (S)-(4-(4-methoxybenzo[d]oxazol-2-yl)-6,7-dihydro-1H-imidazo[4,5-c]pyridin-5(4H)-yl)(1-methyl-1H-1,2,4-triazol-5-yl)methanone] fall in the same range of AC50: 1 to 5 µM for the first, 1 to 5 µM for the second.

First: Cc1ccc(F)c2nc([C@H]3c4nc[nH]c4CCN3C(=O)c3ocnc3C(F)F)oc12 [Example 744, (R)-(4-(difluoromethyl)oxazol-5-yl)(4-(4-fluoro-7-methylbenzo[d]oxazol-2-yl)-6,7-dihydro-1H-imidazo[4,5-c]pyridin-5(4H)-yl)methanone]
Second: Cc1cccc2oc([C@H]3c4nc[nH]c4CCN3C(=O)c3ccnn3C(F)F)nc12 [Example 450, (R)-(1-(difluoromethyl)-1H-pyrazol-5-yl)(4-(4-methylbenzo[d]oxazol-2-yl)-6,7-dihydro-1H-imidazo[4,5-c]pyridin-5(4H)-yl)methanone]
The AC50 of the first is lower: at most 0.5 µM for the first, 1 to 5 µM for the second.

First: O=C(c1nnc(-c2ccccn2)o1)N1CCc2[nH]cnc2[C@@H]1c1nc2c(F)c(F)ccc2o1 [Example 630, (R)-(4-(4,5-difluorobenzo[d]oxazol-2-yl)-6,7-dihydro-1H-imidazo[4,5-c]pyridin-5(4H)-yl)(5-(pyridin-2-yl)-1,3,4-oxadiazol-2-yl)methanone]
Second: Cn1cc(-c2nnc(C(=O)N3CCc4[nH]cnc4[C@H]3c3nc4cc(F)cc(F)c4o3)o2)cn1 [Example 665, (S)-(4-(5,7-difluorobenzo[d]oxazol-2-yl)-6,7-dihydro-1H-imidazo[4,5-c]pyridin-5(4H)-yl)(5-(1-methyl-1H-pyrazol-4-yl)-1,3,4-oxadiazol-2-yl)methanone]
The AC50 of the first is higher: 1 to 5 µM for the first, at most 0.5 µM for the second.

`O=C(c1ccnn1C1CC1)N1CCc2[nH]cnc2[C@H]1c1nc2ccccc2o1` [Example 725, (S)-(4-(benzo[d]oxazol-2-yl)-6,7-dihydro-1H-imidazo[4,5-c]pyridin-5(4H)-yl)(1-cyclopropyl-1H-pyrazol-5-yl)methanone] and `O=C(c1nnc(-c2ccccn2)o1)N1CCc2[nH]cnc2[C@@H]1c1nc2cccc(C(F)(F)F)c2o1` [Example 837, (R)-(5-(pyridin-2-yl)-1,3,4-oxadiazol-2-yl)(4-(7-(trifluoromethyl)benzo[d]oxazol-2-yl)-6,7-dihydro-1H-imidazo[4,5-c]pyridin-5(4H)-yl)methanone] cannot be ordered by AC50: at most 0.5 µM for the first, 0.5 to 1 µM for the second.

`Cc1ccc2oc([C@@H]3c4nc[nH]c4CCN3C(=O)c3oc(C(C)(C)O)nc3C)nc2c1` [Example 331, (S)-(2-(2-hydroxypropan-2-yl)-4-methyloxazol-5-yl)(4-(5-methylbenzo[d]oxazol-2-yl)-6,7-dihydro-1H-imidazo[4,5-c]pyridin-5(4H)-yl)methanone] and `O=C(c1oc(-c2cncnc2)nc1C(F)F)N1CCc2[nH]cnc2[C@@H]1c1nc2cc(F)ccc2o1` [Example 405, (R)-(4-(difluoromethyl)-2-(pyrimidin-5-yl)oxazol-5-yl)(4-(5-fluorobenzo[d]oxazol-2-yl)-6,7-dihydro-1H-imidazo[4,5-c]pyridin-5(4H)-yl)methanone] fall in the same range of AC50: 0.5 to 1 µM for the first, 0.5 to 1 µM for the second.

`Cc1ccc(C)c2oc([C@H]3c4nc[nH]c4CCN3C(=O)c3oc(C(C)(C)O)nc3C(F)F)nc12` [Example 660, (R)-(4-(difluoromethyl)-2-(2-hydroxypropan-2-yl)oxazol-5-yl)(4-(4,7-dimethylbenzo[d]oxazol-2-yl)-6,7-dihydro-1H-imidazo[4,5-c]pyridin-5(4H)-yl)methanone] and `Cc1ccc2oc([C@H]3c4nc[nH]c4CCN3C(=O)c3nnc(-c4ccccn4)o3)nc2c1` [Example 98, (R)-(4-(5-methylbenzo[d]oxazol-2-yl)-6,7-dihydro-1H-imidazo[4,5-c]pyridin-5(4H)-yl)(5-(pyridin-2-yl)-1,3,4-oxadiazol-2-yl)methanone] fall in the same range of AC50: 1 to 5 µM for the first, 1 to 5 µM for the second.

`Cc1cc(F)cc2nc([C@@H]3c4nc[nH]c4CCN3C(=O)c3oc(C(C)(C)O)nc3C(F)F)oc12` [Example 655, (S)-(4-(difluoromethyl)-2-(2-hydroxypropan-2-yl)oxazol-5-yl)(4-(5-fluoro-7-methylbenzo[d]oxazol-2-yl)-6,7-dihydro-1H-imidazo[4,5-c]pyridin-5(4H)-yl)methanone] and `O=C(c1oc(-c2ccc(F)cn2)nc1C(F)F)N1CCc2[nH]cnc2[C@@H]1c1nc2cc(F)ccc2o1` [Example 417, (R)-(4-(difluoromethyl)-2-(5-fluoropyridin-2-yl)oxazol-5-yl)(4-(5-fluorobenzo[d]oxazol-2-yl)-6,7-dihydro-1H-imidazo[4,5-c]pyridin-5(4H)-yl)methanone] cannot be ordered by AC50: at most 0.5 µM for the first, at most 0.5 µM for the second.

`C[C@H](O)c1nc(C(F)F)c(C(=O)N2CCc3[nH]cnc3[C@@H]2c2nc3cccc(F)c3o2)o1` [Example 244, (4-(difluoromethyl)-2-((S)-1-hydroxyethyl)oxazol-5-yl)((R)-4-(7-fluorobenzo[d]oxazol-2-yl)-6,7-dihydro-1H-imidazo[4,5-c]pyridin-5(4H)-yl)methanone] and `CC(C)(F)c1nnc(C(=O)N2CCc3[nH]cnc3[C@@H]2c2nc3c(F)ccc(F)c3o2)o1` [Example 809, (R)-(4-(4,7-difluorobenzo[d]oxazol-2-yl)-6,7-dihydro-1H-imidazo[4,5-c]pyridin-5(4H)-yl)(5-(2-fluoropropan-2-yl)-1,3,4-oxadiazol-2-yl)methanone] cannot be ordered by AC50: 0.5 to 1 µM for the first, at most 0.5 µM for the second.

Same assay, conditions: A375 cells expressing R408W PAH; 24 hrs with compound, then 20 μM sepiapterin and 800 μM 13C9,15N-Phenylalanine for 4 hours; 13C-Tyrosine by LC-MS; average where tested multiple times

`O=C(c1nnc(-c2ccncc2)o1)N1CCc2[nH]cnc2C1c1nc2cc(F)ccc2o1` (stereo not shown) and `O=C(c1nnc(N2CCOCC2)o1)N1CCc2[nH]cnc2C1c1nc2cc(F)ccc2o1` (stereo not shown) fall in the same range of AC50: 1 to 5 µM for the first, 1 to 5 µM for the second.

`COc1cccc2nc(C3c4nc[nH]c4CCN3C(=O)c3ccnn3-c3ccccn3)oc12` (stereo not shown) and `Cc1cccc2nc([C@H]3c4nc[nH]c4CCN3C(=O)c3cnn4cc(N5CCC(O)CC5)ccc34)oc12` (single isomer, unassigned) cannot be ordered by AC50: 1 to 5 µM for the first, at least 5 µM for the second.

`COCCOc1ccc2c(C(=O)N3CCc4[nH]cnc4C3c3nc4cc(F)ccc4o3)cnn2c1` (stereo not shown) and `O=C(c1cnn2cc(CN3CCOCC3)ccc12)N1CCc2[nH]cnc2C1c1nc2cc(F)ccc2o1` (stereo not shown) cannot be ordered by AC50: 1 to 5 µM for the first, at least 5 µM for the second.

`CN1CCN(c2nnc(C(=O)N3CCc4[nH]cnc4C3c3nc4cc(F)ccc4o3)o2)CC1` (stereo not shown) showed an AC50 of at least 5 µM.
